Several values for one entry are separate records, joined by “and”; a condition that tells them apart may be missing. Equal entries are not always repeated.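 Results reflect a 48-hour exposure of cells in 96-well plates to compound at five concentrations. Abbreviation: GI50, concentration required for 50% inhibition of growth. TGI: total growth inhibition.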
Legend:
Experiment in all cases: NCI tumour cell line growth inhibition, 48 h
[1] = test system: NCI-H460 lung
[2] = test system: HL-60(TB) leukemia
[3] = test system: DLD-1 colon
[4] = test system: DMS 273 small cell lung
[5] = test system: RPMI-8226 leukemia
[6] = test system: HOP-92 NSCLC
[7] = test system: TK-10 renal
[8] = test system: DMS 114 small cell lung
[9] = test system: CCRF-CEM leukemia
[10] = test system: BT-549 breast
[11] = test system: DU-145 prostate

Row | Structure (SMILES) | TGI [1] [µM] | TGI [2] | TGI [3] [µM] | TGI [4] [µM] | TGI [5] [µM] | TGI [6] [µM] | TGI [7] [µM] | TGI [8] [µM] | TGI [9] [µM] | GI50 [1] | GI50 [2] | GI50 [10] | TGI [10] | GI50 [5] | GI50 [6] [µM] | GI50 [7] [µM] | GI50 [9] | GI50 [11] | TGI [11] [µM]
1 | O=[N+]([O-])c1ccc(-c2ccc(C3=Nn4c(CNc5ccccc5Cl)nnc4SC3)o2)cc1 | > 100 | > 100 µM | > 100 | > 100 | > 100 | > 100 | > 100 |  |  |  |  |  |  |  |  |  |  |  | 
2 | OC(c1ccccc1Br)(c1ccccc1Br)C(F)(F)F | > 100 |  | 97.6 | 40.7 |  |  | > 100 | 38.2 |  |  |  |  |  |  |  |  |  |  | 
3 | COc1ccc2nc(NC(=O)C(=O)CC(=O)c3ccc([N+](=O)[O-])cc3)sc2c1 | > 100 |  | > 100 | > 100 | > 100 | > 100 |  | > 100 | > 100 |  |  |  |  |  |  |  |  |  | 
4 | ClCCOCCn1cnc2c(Cl)nc(Cl)nc21 | 19.2 | > 100 µM |  |  | > 100 | 45.5 | 60.6 |  | > 100 | 5.57 µM | 4.08 µM | 14.7 µM | 28.2 µM | 18.6 µM | 18.9 | 18.5 | 11.7 µM | 10.2 µM | 21.9
5 | COc1cc(/C=C/c2cc(/C=C/c3ccc(O)c(OC)c3)n(C(=O)c3ccccc3Br)n2)ccc1O | > 100 | 6 µM |  |  | 6 | 9.65 | 33 |  | 6.14 | 2.99 µM | 2.07 µM | 2.12 µM | 7.75 µM | 2.05 µM | 3.82 | 3.85 | 0.841 µM | 3.29 µM | 34.8
6 | CC(=O)Nc1ccc(C2CC(c3ccc([N+](=O)[O-])cc3)=Nc3ccccc3S2=O)cc1 (stereo not given) | 47.9 | 42.2 µM | 34.5 | 35.8 | 20.5 |  | 64.7 | 69.1 | 31.8 |  |  |  |  |  |  |  |  |  | 
7 | Cc1cc(Br)c(NC(=O)c2c(-c3c(Cl)cccc3Cl)noc2C)c(Br)c1 | > 100 | > 100 µM |  |  | > 100 | > 100 | > 100 |  | > 100 | > 100 µM | > 100 µM | > 100 µM | > 100 µM | > 100 µM | > 100 | > 100 | > 100 µM | 90.8 µM | > 100
8 | O=C1C2C3C=CC(C2C(=O)N1CO)C1C2C(=O)N(CO)C(=O)C2C31 (stereo not given) | > 54.5 |  | > 73.7 | > 59.1 | 46.5 | > 100 | > 100 | > 58.6 | > 59.3 |  |  |  |  |  |  |  |  |  | 
9 | Cc1cnc(C(=O)NNc2nc3sc4c(c3c(=O)[nH]2)C(C)CCC4)cn1 (stereo not given) | 12.9 | 4.89 µM |  |  | > 100 | 62.9 | 39.7 |  | > 100 | 0.545 µM | 2.04 µM | 2.08 µM | > 100 µM | 3.39 µM | 1.84 | 1.99 | 0.671 µM | 1.43 µM | 80.7
10 | C[C@H](C(=O)O)C(=O)NC(=O)N(Cc1ccccc1)N=O | > 100 |  | > 100 | > 100 | > 100 |  | > 100 | > 100 | > 100 |  |  |  |  |  |  |  |  |  | 
11 | CC[C@H](C)[C@H](NC(=O)[C@H]1CCCCN1C)C(=O)N(C)[C@H](C[C@@H](OC(C)=O)c1nc(C(=O)NC23CC(C(=O)OC)(C2)C3)cs1)C(C)C | > 32.5 | 0.000698 µM and < 0.00325 µM |  |  | 12.1 |  |  |  | 1.47 | 0.0007 µM and 0.00325 µM | 0.000186 µM and < 0.00325 µM | 0.00048 µM and 0.00325 µM | 0.0253 µM and 0.0318 µM | 0.000328 µM and 0.00325 µM | 0.000734 | 0.0458 | 0.000402 µM and 0.00325 µM | 0.000449 µM and 0.00325 µM | > 32.5
12 | CCO/C=C1\SC(=S)N(c2ccc(OCC)cc2)C1=O | > 100 | > 100 µM |  |  | > 100 | > 100 | > 100 |  | > 100 |  |  |  | > 100 µM |  |  |  |  |  | > 100
13 | O=C(CCCC(=O)Nc1ccc(Cl)cc1Cl)CC(=O)c1ccc2ccccc2c1 | > 100 | > 100 µM | > 100 | > 100 |  | > 100 | > 100 | > 100 | > 100 |  |  |  |  |  |  |  |  |  | 
14 | CCSCC1CC(O)(c2ccccc2)C(c2ccccc2)C(c2ccc(F)cc2)O1 (stereo not given) | 4.01 | 6.33 µM |  |  | 5.95 | 3.15 | 7.28 |  | 32.1 | 1.83 µM | 1.7 µM | 2.31 µM | 7.72 µM | 1.14 µM | 1.23 | 2.6 | 3.15 µM | 2.75 µM | 6.99
15 | COc1ccc2c(C(=O)O)cc3ccccc3c2c1OC |  | > 100 µM | > 100 | 53.4 | > 100 | 44.3 | 33.2 | 38 | 88.4 |  |  |  |  |  |  |  |  |  | 
16 | OCCCCC#Cc1ccccc1C#Cc1cccc(C(F)(F)F)c1 | 40.6 | 59.5 µM |  |  | 40.6 | 36.2 | 32.2 |  | 38.2 | 18.4 µM | 24.6 µM | 16.4 µM | 30.7 µM | 21.7 µM | 19.9 | 16.9 | 20.2 µM | 15.3 µM | 29.9
17 | COc1ccc(-c2nc3ccc(Cc4ccc5nc(-c6ccc(OC)cc6)[nH]c5c4)cc3[nH]2)cc1 | 0.122 | 0.079 µM |  |  | 0.326 | 2.26 | 2.32 |  | 0.275 | 0.0335 µM | < 0.0145 µM | 0.231 µM | 2.54 µM | 0.0425 µM | 0.394 | 1.1 | < 0.01 µM | 0.0385 µM | 0.154
18 | Cc1noc(NC(=O)Nc2ccccc2F)c1C#N | > 34.2 | > 100 µM |  |  | > 100 | > 100 | > 45.1 |  | > 100 |  |  |  | > 100 µM |  |  |  |  |  | > 100
19 | CCCCCCCCCCCC[C@@H](O)[C@H]1CC[C@H]([C@H](O)CC[C@H](O)[C@@H]2CC[C@@H](CCCCCCCC3=C[C@H](C)OC3=O)O2)O1 | > 50 | 5.85 µM and > 50 µM |  |  | > 50 | > 50 | > 50 |  | > 50 | > 50 µM | > 50 µM | 0.00376 µM |  | 2.45 µM | 3.08 | 1.24 | 1.22 µM | > 50 µM | > 50
